Assay results taken from ChEMBL document CHEMBL4311939, “Design and evaluation of novel tetracyclic benzofurans as palm site allosteric inhibitors of HCV NS5B polymerase” (Bioorg Med Chem Lett, 2019).
Values after ≈ are worked out from the molar mass of the structure shown.

Tests used:
[1] = AUC in rat at 650 mg/kg, po using spray dry sample; assay type: ADME, organism-based; conditions: in vivo
[2] = Cmax in rat at 650 mg/kg, po using spray dry sample; assay type: ADME, organism-based; set-up: dose 650 mg/kg, route oral; conditions: in vivo
[3] = AUC in rat at 10 mg/kg, po using spray dry sample; assay type: ADME, organism-based; conditions: in vivo
[4] = Apparent permeability in dog MDCK cells; assay type: ADME, cell-based, Canis lupus familiaris
[5] = Cmax in rat at 100 mg/kg, po using spray dry sample; assay type: ADME, organism-based; set-up: dose 100 mg/kg, route oral; conditions: in vivo
[6] = AUC in rat at 100 mg/kg, po using spray dry sample; assay type: ADME, organism-based; conditions: in vivo
[7] = Cmax in rat at 10 mg/kg, po using spray dry sample; assay type: ADME, organism-based; set-up: dose 10 mg/kg, route oral; conditions: in vivo
[8] = AUC in dog at 2 mg/kg, po; assay type: ADME, organism-based, Canis lupus familiaris; conditions: in vivo
[9] = Cmax in rat at 5 mg/kg, po; assay type: ADME, organism-based; set-up: dose 5 mg/kg, route oral; conditions: in vivo
[10] = Clearance in rat at 1 mg/kg, iv; assay type: ADME, organism-based; conditions: in vivo
[11] = molecular target: Voltage-dependent L-type calcium channel subunit alpha-1C (Homo sapiens, UniProt Q13936); assay: Inhibition of Cav1.2 (unknown origin)
[12] = Oral bioavailability in dog at 2 mg/kg; assay type: ADME, organism-based, Canis lupus familiaris; conditions: in vivo
[13] = Cmax in monkey at 3 mg/kg, po; assay type: ADME, organism-based, Macaca mulatta; set-up: dose 3 mg/kg, route oral; conditions: rhesus monkey, in vivo
[14] = Oral bioavailability in monkey at 3 mg/kg; assay type: ADME, organism-based, Macaca mulatta; conditions: rhesus monkey, in vivo
[15] = Drug concentration in monkey plasma at 3 mg/kg, po after 24 hrs; assay type: ADME, organism-based, Macaca mulatta; conditions: rhesus monkey
[16] = Half life in dog at 0.5 mg/kg, iv; assay type: ADME, organism-based, Canis lupus familiaris; conditions: in vivo
[17] = Cmax in dog at 2 mg/kg, po; assay type: ADME, organism-based, Canis lupus familiaris; set-up: dose 2 mg/kg, route oral; conditions: in vivo
Cytochrome P450 3A4 = Cytochrome P450 3A4 (Homo sapiens, UniProt P08684); assay: Inhibition of CYP3A4 (unknown origin); assay type: ADME
Cytochrome P450 3A4, sequence (P08684 whole entry): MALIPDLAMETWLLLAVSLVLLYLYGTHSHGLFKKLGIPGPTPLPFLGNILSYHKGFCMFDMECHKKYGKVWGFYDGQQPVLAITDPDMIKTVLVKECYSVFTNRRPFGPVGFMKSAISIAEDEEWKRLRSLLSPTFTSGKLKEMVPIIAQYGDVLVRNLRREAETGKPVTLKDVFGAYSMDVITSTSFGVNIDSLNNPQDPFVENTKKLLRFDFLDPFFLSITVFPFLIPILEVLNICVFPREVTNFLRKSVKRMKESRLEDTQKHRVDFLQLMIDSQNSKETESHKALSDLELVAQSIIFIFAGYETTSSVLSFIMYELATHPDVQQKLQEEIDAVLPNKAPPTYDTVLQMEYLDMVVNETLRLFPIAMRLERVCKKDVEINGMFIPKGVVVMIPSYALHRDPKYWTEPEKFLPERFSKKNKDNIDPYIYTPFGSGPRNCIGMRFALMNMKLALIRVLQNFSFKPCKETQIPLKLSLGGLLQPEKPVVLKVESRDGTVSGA

[18] = AUC in rat at 5 mg/kg, po; assay type: ADME, organism-based; conditions: in vivo
[19] = molecular target: Sodium channel protein type 5 subunit alpha (Homo sapiens, UniProt Q14524); assay: Inhibition of Nav1.5 (unknown origin)
Sodium channel protein type 5 subunit alpha, sequence (Q14524 whole entry): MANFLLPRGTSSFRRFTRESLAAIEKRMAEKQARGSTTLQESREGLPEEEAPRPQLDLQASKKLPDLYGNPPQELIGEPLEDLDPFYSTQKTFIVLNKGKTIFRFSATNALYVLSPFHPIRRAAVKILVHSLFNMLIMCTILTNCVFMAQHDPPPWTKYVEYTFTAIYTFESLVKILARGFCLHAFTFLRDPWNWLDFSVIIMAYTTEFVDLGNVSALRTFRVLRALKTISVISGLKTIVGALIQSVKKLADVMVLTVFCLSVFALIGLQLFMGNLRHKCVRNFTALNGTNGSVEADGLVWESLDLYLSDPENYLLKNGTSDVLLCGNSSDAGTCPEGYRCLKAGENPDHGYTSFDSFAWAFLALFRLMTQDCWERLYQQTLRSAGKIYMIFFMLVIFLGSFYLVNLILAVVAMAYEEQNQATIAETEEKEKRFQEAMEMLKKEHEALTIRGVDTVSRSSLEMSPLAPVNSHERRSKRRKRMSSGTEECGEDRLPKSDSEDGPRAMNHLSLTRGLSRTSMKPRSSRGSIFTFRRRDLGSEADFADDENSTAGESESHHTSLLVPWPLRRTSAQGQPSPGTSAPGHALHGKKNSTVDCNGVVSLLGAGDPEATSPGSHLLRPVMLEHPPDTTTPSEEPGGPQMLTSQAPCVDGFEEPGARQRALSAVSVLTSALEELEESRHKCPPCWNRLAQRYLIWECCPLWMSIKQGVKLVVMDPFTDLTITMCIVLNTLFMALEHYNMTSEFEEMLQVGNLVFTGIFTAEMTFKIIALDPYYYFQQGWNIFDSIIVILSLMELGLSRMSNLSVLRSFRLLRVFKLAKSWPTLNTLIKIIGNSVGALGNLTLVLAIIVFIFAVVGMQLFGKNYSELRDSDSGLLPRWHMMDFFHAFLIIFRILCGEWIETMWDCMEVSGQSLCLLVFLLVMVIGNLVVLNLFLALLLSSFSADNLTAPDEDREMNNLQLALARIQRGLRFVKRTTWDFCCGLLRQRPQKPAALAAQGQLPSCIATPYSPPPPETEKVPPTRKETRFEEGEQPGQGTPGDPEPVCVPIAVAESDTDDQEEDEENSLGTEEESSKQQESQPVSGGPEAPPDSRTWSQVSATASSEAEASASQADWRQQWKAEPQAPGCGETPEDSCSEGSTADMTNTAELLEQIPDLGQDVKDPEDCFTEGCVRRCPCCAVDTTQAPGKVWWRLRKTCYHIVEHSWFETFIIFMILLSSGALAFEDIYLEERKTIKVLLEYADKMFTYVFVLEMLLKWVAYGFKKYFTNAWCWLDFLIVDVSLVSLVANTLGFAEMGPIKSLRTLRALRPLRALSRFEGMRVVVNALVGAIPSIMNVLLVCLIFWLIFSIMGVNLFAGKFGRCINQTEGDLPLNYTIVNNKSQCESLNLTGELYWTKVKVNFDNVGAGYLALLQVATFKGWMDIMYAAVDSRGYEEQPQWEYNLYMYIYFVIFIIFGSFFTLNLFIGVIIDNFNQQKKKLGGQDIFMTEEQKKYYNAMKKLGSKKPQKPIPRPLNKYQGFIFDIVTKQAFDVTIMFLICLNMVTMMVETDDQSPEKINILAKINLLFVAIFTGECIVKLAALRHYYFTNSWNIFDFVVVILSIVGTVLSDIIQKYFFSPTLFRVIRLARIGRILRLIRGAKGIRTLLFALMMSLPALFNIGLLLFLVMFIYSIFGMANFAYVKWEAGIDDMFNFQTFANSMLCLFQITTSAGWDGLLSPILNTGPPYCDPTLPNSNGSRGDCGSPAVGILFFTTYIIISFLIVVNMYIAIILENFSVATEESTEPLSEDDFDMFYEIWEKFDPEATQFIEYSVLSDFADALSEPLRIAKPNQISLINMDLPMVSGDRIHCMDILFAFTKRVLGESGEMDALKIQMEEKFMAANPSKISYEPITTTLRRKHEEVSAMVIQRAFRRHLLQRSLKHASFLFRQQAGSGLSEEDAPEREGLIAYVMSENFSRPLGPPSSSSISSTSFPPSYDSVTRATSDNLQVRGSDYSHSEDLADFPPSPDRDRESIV

[20] = Clearance in dog at 0.5 mg/kg, iv; assay type: ADME, organism-based, Canis lupus familiaris; conditions: in vivo
[21] = AUC in monkey at 3 mg/kg, po; assay type: ADME, organism-based, Macaca mulatta; conditions: rhesus monkey, in vivo
[22] = molecular target: T1, Nuclear receptor subfamily 1 group I member 2 (Homo sapiens, UniProt O75469); assay: Transactivation of PXR (unknown origin); assay type: ADME
T1 sequence (O75469 whole entry): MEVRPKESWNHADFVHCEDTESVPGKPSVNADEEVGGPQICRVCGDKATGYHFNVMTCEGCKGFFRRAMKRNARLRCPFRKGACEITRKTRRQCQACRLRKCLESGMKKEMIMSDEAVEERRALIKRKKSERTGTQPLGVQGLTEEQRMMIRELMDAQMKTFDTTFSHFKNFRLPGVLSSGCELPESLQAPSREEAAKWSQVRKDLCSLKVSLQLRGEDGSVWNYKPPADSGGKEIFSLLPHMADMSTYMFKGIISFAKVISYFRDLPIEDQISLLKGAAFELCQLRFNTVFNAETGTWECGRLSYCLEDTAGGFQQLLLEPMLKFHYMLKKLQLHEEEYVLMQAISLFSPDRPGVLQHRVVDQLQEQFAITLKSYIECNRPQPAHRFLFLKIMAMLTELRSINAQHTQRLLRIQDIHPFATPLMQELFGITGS

[23] = molecular target: Voltage-gated inwardly rectifying potassium channel KCNH2 (Homo sapiens, UniProt Q12809); assay: Inhibition of human ERG by patch clamp assay
Voltage-gated inwardly rectifying potassium channel KCNH2, sequence (Q12809 whole entry): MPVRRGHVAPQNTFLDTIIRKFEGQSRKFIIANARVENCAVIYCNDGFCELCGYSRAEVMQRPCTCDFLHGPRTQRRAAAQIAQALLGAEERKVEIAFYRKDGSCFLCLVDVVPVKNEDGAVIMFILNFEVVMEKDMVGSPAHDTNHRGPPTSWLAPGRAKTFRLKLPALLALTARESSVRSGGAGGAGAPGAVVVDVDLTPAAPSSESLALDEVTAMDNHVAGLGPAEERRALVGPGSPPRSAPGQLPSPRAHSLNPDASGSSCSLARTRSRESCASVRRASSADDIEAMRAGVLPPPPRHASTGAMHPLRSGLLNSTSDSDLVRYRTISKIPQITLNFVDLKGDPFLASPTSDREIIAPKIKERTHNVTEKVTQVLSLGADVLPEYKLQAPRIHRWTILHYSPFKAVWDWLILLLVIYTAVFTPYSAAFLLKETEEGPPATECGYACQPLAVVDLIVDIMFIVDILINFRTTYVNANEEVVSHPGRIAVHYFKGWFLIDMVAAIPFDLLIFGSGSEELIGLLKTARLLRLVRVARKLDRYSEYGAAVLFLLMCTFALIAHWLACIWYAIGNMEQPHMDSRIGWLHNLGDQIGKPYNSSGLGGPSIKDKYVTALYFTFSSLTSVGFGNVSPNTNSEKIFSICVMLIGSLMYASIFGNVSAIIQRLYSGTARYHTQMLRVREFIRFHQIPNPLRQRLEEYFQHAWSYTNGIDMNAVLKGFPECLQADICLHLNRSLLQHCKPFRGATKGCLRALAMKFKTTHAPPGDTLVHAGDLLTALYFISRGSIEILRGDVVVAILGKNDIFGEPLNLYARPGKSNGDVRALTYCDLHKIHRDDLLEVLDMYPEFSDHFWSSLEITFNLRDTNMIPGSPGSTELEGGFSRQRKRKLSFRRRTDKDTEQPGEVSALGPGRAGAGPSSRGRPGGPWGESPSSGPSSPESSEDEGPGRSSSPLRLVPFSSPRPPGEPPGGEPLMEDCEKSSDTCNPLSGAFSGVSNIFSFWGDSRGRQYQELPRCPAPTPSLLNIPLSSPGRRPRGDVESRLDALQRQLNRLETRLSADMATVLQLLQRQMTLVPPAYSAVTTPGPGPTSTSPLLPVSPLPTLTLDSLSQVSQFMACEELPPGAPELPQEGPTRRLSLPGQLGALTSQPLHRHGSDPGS

[24] = Drug concentration in dog plasma at 2 mg/kg, po after 24 hrs; assay type: ADME, organism-based, Canis lupus familiaris
[25] = Half life in monkey at 1 mg/kg, iv; assay type: ADME, organism-based, Macaca mulatta; conditions: rhesus monkey, in vivo
[26] = Oral bioavailability in rat at 5 mg/kg; assay type: ADME, organism-based; conditions: in vivo
[27] = Drug concentration in rat plasma at 5 mg/kg, po after 24 hrs; assay type: ADME, organism-based
[28] = Half life in rat at 1 mg/kg, iv; assay type: ADME, organism-based; conditions: in vivo
[29] = Solubility of the compound in FaSSIF using crystalline sample; assay type: physicochemical
[30] = Clearance in monkey at 1 mg/kg, iv; assay type: ADME, organism-based, Macaca mulatta; conditions: rhesus monkey, in vivo
[31] = AUC in rat at 300 mg/kg, po using spray dry sample; assay type: ADME, organism-based; conditions: in vivo
[32] = Cmax in rat at 300 mg/kg, po using spray dry sample; assay type: ADME, organism-based; set-up: dose 300 mg/kg, route oral; conditions: in vivo
[33] = AUC in rat at 100 mg/kg, po using conventional sample; assay type: ADME, organism-based; conditions: in vivo
[34] = Tmax in rat at 5 mg/kg, po; assay type: ADME, organism-based; conditions: in vivo

Row | SMILES | AUC [3] [µM·h] | Papp [4] [×10⁻⁶ cm/s] | Cmax [5] [nM] | AUC [6] [µM·h] | Cmax [7] [nM] | AUC [8] [µM·h] | Cmax [9] [nM] | clearance [10] [mL/min/kg] | IC50 [11] [µM] | bioavailability [12] [%] | Cmax [13] [nM] | bioavailability [14] [%] | concentration at 24 h [15] [nM] | half-life [16] [h] | Cmax [17] [nM] | IC50 (Cytochrome P450 3A4) [µM] | AUC [18] [µM·h] | IC50 [19] [µM] | bioavailability [26] [%] | half-life [28] [h] | also measured
1 | CNC(=O)c1c(-c2ccc(F)cc2)oc2cc(N(C)S(C)(=O)=O)c(-c3ccc4c(n3)-c3cc5c(F)cccc5n3CO4)cc12 [MK-8876] | 16 | 7.9 | 6700 | 83 | 1500 | – | – | – | – | – | – | – | – | – | – | – | – | – | – | – | AUC [1]: 226 µM·h; Cmax [2]: 12000 nM
2 | CNC(=O)c1c(-c2ccc(F)cc2)oc2cc(N(C)S(C)(=O)=O)c(-c3ccc4ccn5c6cccc(F)c6cc5c4n3)cc12 | – | < 1.9 | – | – | – | 6.3 | 450 | 4.2 | 18 | 43 | 370 | 24 | 31 | 22 | 1000 | > 50 | 7.9 | > 30 | 26 | 16 | clearance [20]: 2.6 mL/min/kg; AUC [21]: 3.5 µM·h; EC50 [22]: > 30 µM; IC50 [23]: > 30 µM; concentration at 24 h [24]: 140 nM; half-life [25]: 6.6 h; concentration at 24 h [27]: 114 nM; solubility thermodynamic [29]: 2.9 µg/mL (≈ 4.75 µM); clearance [30]: 5.6 mL/min/kg
3 | CNC(=O)c1c(-c2ccc(F)cc2)oc2cc(N(C)S(C)(=O)=O)c(-c3ccc4ncn5c6cccc(F)c6cc5c4n3)cc12 | 32 | 10.2 | 8500 | 136 | 2700 | 9.4 | 580 | 8.5 | 22 | 64 | 660 | 20 | 10 | 17 | 840 | > 50 | 5.2 | > 30 | 36 | 8.4 | AUC [31]: 181 µM·h; Cmax [32]: 5600 nM; clearance [20]: 3.2 mL/min/kg; AUC [21]: 3.4 µM·h; EC50 [22]: > 30 µM; IC50 [23]: > 30 µM; AUC [33]: 0.67 µM·h; concentration at 24 h [24]: 130 nM; half-life [25]: 6.1 h; concentration at 24 h [27]: 110 nM; solubility thermodynamic [29]: 1.02 µg/mL (≈ 1.67 µM); clearance [30]: 4.7 mL/min/kg
4 | CNC(=O)c1c(-c2ccc(F)cc2)oc2cc(N(C)S(C)(=O)=O)c(-c3cc4n(c(=O)c3)CCn3c-4cc4c(F)cccc43)cc12 | – | – | – | – | – | – | 190 | 17 | – | – | – | – | – | – | – | – | 0.078 | – | 1 | 4.3 | Tmax [34]: 1 h
